Test results: patent publication US10405547B2, “Substituted cyclic amides as herbicides” (FMC Corporation, priority 2015, dated 2019)

Legend:
Assay type in all cases: in vivo
[1] = tested on: wheat (Triticum aestivum); test: Test A postemergence, wheat; details: 0 to 100 scale (0 no effect, 100 complete control)
Procedure, shortened: (§1)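 Greenhouse test: compounds in solvent with surfactant sprayed onto loam–sand soil after planting (preemergence) or onto plants 2-10 cm at the one- to two-leaf stage (postemergence). Injury visually rated versus untreated controls after about 10 days on a 0-100 scale (100 = complete control).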

rice (Oryza sativa) = test: Test B flooded paddy test, rice; details: 250 g ai/ha, applied to paddy water, visual rating after 13 to 15 days, scale 0 (no effect) to 100 (complete control)
Procedure, shortened: (§2)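 Under a constant 3 cm flood, test compounds went directly into the paddy water. Following 13 to 15 days of greenhouse growth, treated species and controls were compared by eye.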

corn (Zea mays) = test: Test A postemergence, corn; details: 0 to 100 scale (0 no effect, 100 complete control)
Procedure, shortened: as §1

[2] = tested on: blackgrass (Alopecurus myosuroides); test: Test A postemergence, blackgrass; details: 0 to 100 scale (0 no effect, 100 complete control)
Procedure, shortened: as §1

[3] = tested on: ragweed (common ragweed, Ambrosia elatior); test: Test A preemergence, ragweed; details: 0 to 100 scale (0 no effect, 100 complete control)
Procedure, shortened: as §1

[4] = tested on: pigweed (Amaranthus retroflexus); test: Test A preemergence, pigweed; details: 0 to 100 scale (0 no effect, 100 complete control)
Procedure, shortened: as §1

[5] = tested on: foxtail, giant (Setaria faberii); test: Test A preemergence, giant foxtail; details: 0 to 100 scale (0 no effect, 100 complete control)
Procedure, shortened: as §1

[6] = tested on: barnyardgrass (Echinochloa crus-galli); test: Test A preemergence, barnyardgrass; details: 0 to 100 scale (0 no effect, 100 complete control)
Procedure, shortened: as §1

[7] = tested on: pigweed (Amaranthus retroflexus); test: Test A postemergence, pigweed; details: 0 to 100 scale (0 no effect, 100 complete control)
Procedure, shortened: as §1

[8] = tested on: ducksalad (Heteranthera limosa); test: Test B flooded paddy test, ducksalad; details: 250 g ai/ha, applied to paddy water, visual rating after 13 to 15 days, scale 0 (no effect) to 100 (complete control)
Procedure, shortened: as §2

kochia (Kochia scoparia) [9] = test: Test A preemergence, kochia; details: 0 to 100 scale (0 no effect, 100 complete control)
Procedure, shortened: as §1

[10] = tested on: ryegrass, Italian (Lolium multiflorum); test: Test A preemergence, Italian ryegrass; details: 0 to 100 scale (0 no effect, 100 complete control)
Procedure, shortened: as §1

[11] = tested on: foxtail, giant (Setaria faberii); test: Test A postemergence, giant foxtail; details: 0 to 100 scale (0 no effect, 100 complete control)
Procedure, shortened: as §1

[12] = tested on: ryegrass, Italian (Lolium multiflorum); test: Test A postemergence, Italian ryegrass; details: 0 to 100 scale (0 no effect, 100 complete control)
Procedure, shortened: as §1

[13] = tested on: barnyardgrass (Echinochloa crus-galli); test: Test B flooded paddy test, barnyardgrass; details: 250 g ai/ha, applied to paddy water, visual rating after 13 to 15 days, scale 0 (no effect) to 100 (complete control)
Procedure, shortened: as §2

[14] = tested on: barnyardgrass (Echinochloa crus-galli); test: Test A postemergence, barnyardgrass; details: 0 to 100 scale (0 no effect, 100 complete control)
Procedure, shortened: as §1

[15] = tested on: sedge, umbrella (small-flower umbrella sedge, Cyperus difformis); test: Test B flooded paddy test, umbrella sedge; details: 250 g ai/ha, applied to paddy water, visual rating after 13 to 15 days, scale 0 (no effect) to 100 (complete control)
Procedure, shortened: as §2

[16] = tested on: ragweed (common ragweed, Ambrosia elatior); test: Test A postemergence, ragweed; details: 0 to 100 scale (0 no effect, 100 complete control)
Procedure, shortened: as §1

kochia (Kochia scoparia) [17] = test: Test A postemergence, kochia; details: 0 to 100 scale (0 no effect, 100 complete control)
Procedure, shortened: as §1

[18] = tested on: galium (catchweed bedstraw, Galium aparine); test: Test A postemergence, galium; details: 0 to 100 scale (0 no effect, 100 complete control)
Procedure, shortened: as §1

[19] = 125 g ai/ha, visual injury, approximately 10 days
[20] = 500 g ai/ha, visual injury, approximately 10 days

| Compound | Plant response rating, Wheat [1, 19] | Plant response rating, Rice (Flood) (rice (Oryza sativa)) | Plant response rating, Corn (corn (Zea mays); [19]) | Plant response rating, Blackgrass [2, 19] | Plant response rating, Ragweed ([3]; 125 g ai/ha) | Plant response rating, Pigweed ([4]; 125 g ai/ha) | Plant response rating, Foxtail, Giant ([5]; 125 g ai/ha) | Plant response rating, Barnyardgrass ([6]; 125 g ai/ha) | Plant response rating, Pigweed [7, 19] | Plant response rating, Ducksalad (Flood) [8] | Plant response rating, Kochia (kochia (Kochia scoparia) [9]; 125 g ai/ha) | Plant response rating, Ryegrass, Italian ([10]; 125 g ai/ha) | Plant response rating, Foxtail, Giant [11, 19] | Plant response rating, Ryegrass, Italian [12, 19] | Plant response rating, Barnyardgrass (Flood) [13] | Plant response rating, Barnyardgrass [14, 19] | Plant response rating, Sedge, Umbrella (Flood) [15] | Plant response rating, Ragweed [16, 19] | Plant response rating, Kochia (kochia (Kochia scoparia) [17]; [19]) | Plant response rating, Galium [18, 19] | other results |
| --- | --- | --- | --- | --- | --- | --- | --- | --- | --- | --- | --- | --- | --- | --- | --- | --- | --- | --- | --- | --- | --- |
| O=C1NCC(c2cccc(CN3CCOCC3)c2)C1C(=O)Nc1cccc(F)c1F (single isomer, unassigned) [Compound 90] | 0 | 0 | 0 | 0 | 0 | 0 | 0 | 0 | 0 | 0 | 0 | 0 | 0 | 0 | 0 | 0 | 0 | 0 | 0 | 0 | Plant response rating, Wheat ([1]; 31 g ai/ha): 0; Plant response rating, Corn (corn (Zea mays); 31 g ai/ha): 0; Plant response rating, Blackgrass ([2]; 31 g ai/ha): 0; Plant response rating, Ragweed ([3]; 31 g ai/ha): 0; Plant response rating, Pigweed ([4]; 31 g ai/ha): 0; Plant response rating, Foxtail, Giant ([5]; 31 g ai/ha): 0; Plant response rating, Barnyardgrass ([6]; 31 g ai/ha): 0; Plant response rating, Pigweed ([7]; 31 g ai/ha): 0; Plant response rating, Kochia (kochia (Kochia scoparia) [9]; 31 g ai/ha): 0; Plant response rating, Ryegrass, Italian ([10]; 31 g ai/ha): 0; Plant response rating, Foxtail, Giant ([11]; 31 g ai/ha): 0; Plant response rating, Ryegrass, Italian ([12]; 31 g ai/ha): 0; Plant response rating, Barnyardgrass ([14]; 31 g ai/ha): 0; Plant response rating, Ragweed ([16]; 31 g ai/ha): 0; Plant response rating, Kochia (kochia (Kochia scoparia) [17]; 31 g ai/ha): 0; Plant response rating, Galium ([18]; 31 g ai/ha): 0 |
| CC1(COc2cccc(C3CNC(=O)C3C(=O)Nc3ccccc3F)c2)COC1 (stereo not drawn) [Compound 14] | 0 | 0 | 0 | 0 | 0 | 0 | 30 | 10 | 0 | 70 | 0 | 0 | 10 | 0 | 0 | 10 | 20 | 0 | 0 | 0 | Plant response rating, Wheat [1, 20]: 0; Plant response rating, Corn (corn (Zea mays); [20]): 0; Plant response rating, Blackgrass [2, 20]: 0; Plant response rating, Ragweed ([3]; 500 g ai/ha): 0; Plant response rating, Pigweed ([4]; 500 g ai/ha): 0; Plant response rating, Foxtail, Giant ([5]; 500 g ai/ha): 90; Plant response rating, Barnyardgrass ([6]; 500 g ai/ha): 80; Plant response rating, Pigweed [7, 20]: 0; Plant response rating, Kochia (kochia (Kochia scoparia) [9]; 500 g ai/ha): 0; Plant response rating, Ryegrass, Italian ([10]; 500 g ai/ha): 0; Plant response rating, Foxtail, Giant [11, 20]: 70; Plant response rating, Ryegrass, Italian [12, 20]: 0; Plant response rating, Barnyardgrass [14, 20]: 60; Plant response rating, Ragweed [16, 20]: 0; Plant response rating, Kochia (kochia (Kochia scoparia) [17]; [20]): 0; Plant response rating, Galium [18, 20]: 0 |
| O=C1NCC(c2cccc(OCc3ccco3)c2)C1C(=O)Nc1ccccc1F (stereo not drawn) [Compound 10] | 0 | 0 | 0 | 0 | 0 | 0 | 0 | 0 | 0 | 60 | 0 | 0 | 0 | 0 | 0 | 10 | 40 | 0 | 0 | 0 | Plant response rating, Wheat [1, 20]: 0; Plant response rating, Corn (corn (Zea mays); [20]): 0; Plant response rating, Blackgrass [2, 20]: 0; Plant response rating, Ragweed ([3]; 500 g ai/ha): 0; Plant response rating, Pigweed ([4]; 500 g ai/ha): 0; Plant response rating, Foxtail, Giant ([5]; 500 g ai/ha): 0; Plant response rating, Barnyardgrass ([6]; 500 g ai/ha): 0; Plant response rating, Pigweed [7, 20]: 0; Plant response rating, Kochia (kochia (Kochia scoparia) [9]; 500 g ai/ha): 0; Plant response rating, Ryegrass, Italian ([10]; 500 g ai/ha): 0; Plant response rating, Foxtail, Giant [11, 20]: 30; Plant response rating, Ryegrass, Italian [12, 20]: 0; Plant response rating, Barnyardgrass [14, 20]: 60; Plant response rating, Ragweed [16, 20]: 0; Plant response rating, Kochia (kochia (Kochia scoparia) [17]; [20]): 0; Plant response rating, Galium [18, 20]: 0 |
| CC1(COc2cccc(C3CNC(=O)C3C(=O)Nc3ccccc3Cl)c2)COC1 (stereo not drawn) [Compound 16] | 0 | 0 | 0 | 0 | 0 | 0 | 10 | 0 | 0 | 30 | 0 | 0 | 0 | 0 | 0 | 0 | 30 | 0 | 0 | 0 | Plant response rating, Wheat [1, 20]: 0; Plant response rating, Corn (corn (Zea mays); [20]): 0; Plant response rating, Blackgrass [2, 20]: 0; Plant response rating, Ragweed ([3]; 500 g ai/ha): 0; Plant response rating, Pigweed ([4]; 500 g ai/ha): 0; Plant response rating, Foxtail, Giant ([5]; 500 g ai/ha): 70; Plant response rating, Barnyardgrass ([6]; 500 g ai/ha): 60; Plant response rating, Pigweed [7, 20]: 0; Plant response rating, Kochia (kochia (Kochia scoparia) [9]; 500 g ai/ha): 0; Plant response rating, Ryegrass, Italian ([10]; 500 g ai/ha): 0; Plant response rating, Foxtail, Giant [11, 20]: 20; Plant response rating, Ryegrass, Italian [12, 20]: 0; Plant response rating, Barnyardgrass [14, 20]: 50; Plant response rating, Ragweed [16, 20]: 0; Plant response rating, Kochia (kochia (Kochia scoparia) [17]; [20]): 0; Plant response rating, Galium [18, 20]: 0 |
